Data published in ChEMBL document CHEMBL4043214, “Design, synthesis, and SAR study of 3-(benzo[d][1,3]dioxol-5-yl)-N-benzylpropanamide as novel potent synergists against fluconazole-resistant Candida albicans” (2017).

Legend:
Type in all cases: functional
Candida albicans [1] = assay: Potentiation of fluconazole-induced anti-fungal activity against fluconazole-resistant Candida albicans isolate 103 by two-fold dilution method
Candida albicans [2] = assay: Synergistic anti-fungal activity against fluconazole-resistant Candida albicans isolate 100 in presence of fluconazole by two-fold dilution method
Candida albicans [3] = assay: Potentiation of fluconazole-induced anti-fungal activity against fluconazole-resistant Candida albicans isolate 100 assessed as fluconazole MIC80 at 4 ug/ml by checkerboard microdilution assay
Candida albicans [4] = assay: Potentiation of fluconazole-induced anti-fungal activity against fluconazole-resistant Candida albicans isolate 100 assessed as fluconazole MIC80 at 8 ug/ml by checkerboard microdilution assay
Candida albicans [5] = assay: Potentiation of fluconazole-induced anti-fungal activity against fluconazole-resistant Candida albicans isolate 100 by two-fold dilution method
Candida albicans [6] = assay: Potentiation of fluconazole-induced anti-fungal activity against fluconazole-resistant Candida albicans isolate 100 assessed as fluconazole MIC80 at 2 ug/ml by checkerboard microdilution assay
Candida albicans [7] = assay: Potentiation of fluconazole-induced anti-fungal activity against fluconazole-resistant Candida albicans isolate 103 at 1 ug/ml by checkerboard microdilution assay
Candida albicans [8] = assay: Potentiation of fluconazole-induced anti-fungal activity against fluconazole-resistant Candida albicans isolate 100 at 2 ug/ml by checkerboard microdilution assay
Candida albicans [9] = assay: Potentiation of fluconazole-induced anti-fungal activity against fluconazole-resistant Candida albicans isolate 103 at 2 ug/ml by checkerboard microdilution assay
Candida albicans [10] = assay: Potentiation of fluconazole-induced anti-fungal activity against fluconazole-resistant Candida albicans isolate 100 at 4 ug/ml by checkerboard microdilution assay
Candida albicans [11] = assay: Potentiation of fluconazole-induced anti-fungal activity against fluconazole-resistant Candida albicans isolate 100 assessed as fluconazole MIC80 at 1 ug/ml by checkerboard microdilution assay
Candida albicans [12] = assay: Potentiation of fluconazole-induced anti-fungal activity against fluconazole-resistant Candida albicans isolate 100 at 8 ug/ml by checkerboard microdilution assay
Candida albicans [13] = assay: Potentiation of fluconazole-induced anti-fungal activity against fluconazole-resistant Candida albicans isolate 103 assessed as fluconazole MIC80 at 1 ug/ml by checkerboard microdilution assay
Candida albicans [14] = assay: Potentiation of fluconazole-induced anti-fungal activity against fluconazole-resistant Candida albicans isolate 103 assessed as fluconazole MIC80 at 4 ug/ml by checkerboard microdilution assay
Candida albicans [15] = assay: Potentiation of fluconazole-induced anti-fungal activity against fluconazole-resistant Candida albicans isolate 103 at 8 ug/ml by checkerboard microdilution assay
Candida albicans [16] = assay: Potentiation of fluconazole-induced anti-fungal activity against fluconazole-resistant Candida albicans isolate 103 assessed as fluconazole MIC80 at 2 ug/ml by checkerboard microdilution assay
Candida albicans [17] = assay: Potentiation of fluconazole-induced anti-fungal activity against fluconazole-resistant Candida albicans isolate 100 at 1 ug/ml by checkerboard microdilution assay
Candida albicans [18] = assay: Potentiation of fluconazole-induced anti-fungal activity against fluconazole-resistant Candida albicans isolate 103 at 4 ug/ml by checkerboard microdilution assay
Candida albicans [19] = assay: Synergistic anti-fungal activity against fluconazole-resistant Candida albicans isolate 103 in presence of fluconazole by two-fold dilution method
Candida albicans [20] = assay: Potentiation of fluconazole-induced anti-fungal activity against fluconazole-resistant Candida albicans isolate 103 assessed as fluconazole MIC80 at 8 ug/ml by checkerboard microdilution assay
Candida albicans [21] = assay: Anti-fungal activity against fluconazole-resistant Candida albicans isolate 103 by microbroth dilution method
Candida albicans [22] = assay: Anti-fungal activity against fluconazole-resistant Candida albicans isolate 100 by microbroth dilution method

COc1ccc2cc3[n+](cc2c1OC)CCc1cc2c(cc1-3)OCO2 [BERBERINE]
fractional inhibitory concentration index (FICI) (Candida albicans [1]): 0.093 | MIC80 (Candida albicans [2]): 1 µg/mL | MIC80 (Candida albicans [3]): 1 µg/mL | MIC80 (Candida albicans [4]): 1 µg/mL | fractional inhibitory concentration index (FICI) (Candida albicans [5]): 0.093 | MIC80 (Candida albicans [6]): 1 µg/mL | fractional inhibitory concentration index (FICI) (Candida albicans [7]): 0.07 | fractional inhibitory concentration index (FICI) (Candida albicans [8]): 0.039 | fractional inhibitory concentration index (FICI) (Candida albicans [9]): 0.039 | fractional inhibitory concentration index (FICI) (Candida albicans [10]): 0.063 | MIC80 (Candida albicans [11]): 2 µg/mL | fractional inhibitory concentration index (FICI) (Candida albicans [12]): 0.093 | MIC80 (Candida albicans [13]): 2 µg/mL | MIC80 (Candida albicans [14]): 1 µg/mL | fractional inhibitory concentration index (FICI) (Candida albicans [15]): 0.093 | MIC80 (Candida albicans [16]): 1 µg/mL | fractional inhibitory concentration index (FICI) (Candida albicans [17]): 0.07 | fractional inhibitory concentration index (FICI) (Candida albicans [18]): 0.063 | MIC80 (Candida albicans [19]): 1 µg/mL | MIC80 (Candida albicans [20]): 1 µg/mL | MIC80 (Candida albicans [21]): 32 µg/mL | MIC80 (Candida albicans [22]): 32 µg/mL
